Results reported in patent publication US8895079B2, “Combinations of botanical extracts for promoting cardiovascular health” (National Research Council of Canada, priority 2005, dated 2014).
Marks after values point to notes of the source that are not given here.

How the values were obtained:
Format in all cases: in vivo, Male Golden Syrian hamsters
[1] = test system: hamsters fed an atherogenic control diet; test: Example 1: four week hamster study, plasma cholesterol and triglyceride levels
Method: A controlled, four week animal study was performed to compare and contrast the effects of three interventional strategies on blood cholesterol and triglyceride levels. Four randomized groups of 15 male Golden Syrian hamsters were fed isocaloric diets as follows: • Control a semi-synthetic casein-corn starch-sucrose diet that contained 0.15% (w/w) cholesterol and 5% (w/w) fat • BBRCI control diet containing 100 mg/kg·d of BBRCI • PS control diet containing 1% (w/w) PS • BBRCI+PS control diet containing 100 mg/kg·d BBRCI and 1% (w/w) PS BBRCI and PS were introduced into the diet by blending. The primary endpoint at the end of the study was to determine the effects of each intervention on circulating blood lipids including total cholesterol (T-C), high-density-lipoprotein cholesterol (HDL-C), nonHDL-C (which is indicative of LDL-C levels) and triglyceride (TG) profiles. All lipids were measured by the standard enzymatic method. Male Golden Syrian Hamsters were purchased from Charles River Co. housed individually in cages for two weeks prior to the commencement of the study. During this adjustment period, animals were fed with regular rodent chow diet with free access to both food and water. A total of 60 hamsters were weighed and randomly assigned to one of four groups of 15 animals each. Animals are subjected to a temperature-controlled environment with a 12:12 h light/dark cycle. Each group was fed with one of the four isocaloric experimental diets for a 4 week period. […] During the course of the experiment, animals were weighed weekly and food consumption was determined on a daily basis over the course of the experiment. At the conclusion of the study all animals were anaesthetized with isoflurane and killed by decapitation. Blood samples were collected into tubes containing ethylenediaminetetraacetic acid (EDTA). Red blood cells and plasma were separated and stored at −80° C. until further analysis. Plasma was analyzed for total cholesterol, HDL-C and TG concentrations, for which results are reported below. NonHDL-C was calculated by subtracting HDL-C from total cholesterol. FIGS. 1-3 and Table 2 represent the effects of BBRCI and PS alone or in combination on blood cholesterol and triglyceride levels. Values are means±SD, n=15. Data were analyzed by one-way ANOVA followed by Tukey test if significance was detected. A significant difference was indicated by a p<0.05.

[2] = test system: hamsters fed an atherogenic control diet; test: Example 1: liver cholesterol concentration (FIG. 4); settings: Example 1, 4 weeks, BBRCI 100 mg/kg·d and/or PS 1% (w/w)
Description: This observation, together with lower liver weight, implies that either BBRCI or PS or combination of either can be used to treat fatty liver.

[3] = test system: intestinal ABCG8 mRNA; test: Example 1: intestinal ABCG8 mRNA expression, real-time PCR; settings: intestine; relative expression in reference to a housekeeping gene; Example 1, 4 weeks
Method: Experiments were also conducted to determine the effect on the expression of genes associated with cholesterol in the liver and intestine. Total RNA was extracted and mRNA was converted to cDNA. The mRNA expression was measured by real-time PCR with four repeats and calculated as relative expression in reference to internal control of a housekeeping gene for each sample. […] The function of ABCG5 and ABCG8 in the intestine is to transport cholesterol out of enterocytes and back to the intestine for elimination via the feces. […] The observation of our study (Example 1) has provided a strong support to the synergistic action of BBRCI and PS on cholesterol reduction.

[4] = test system: hamsters fed an atherogenic control diet; test: Example 1: tissue weight relative to body weight and histopathological examination of organs
Method: Histopathological testing and examination of gross and microscopic examination of thin sections of the various organs were conducted by a certified pathologist. There were no significant changes in the appearance or weight of brain, lung, heart, spleen and kidney. However, the livers of control animals were observably yellowish and heavier than those of animals treated with BBRCI or plant stanols, or the combination of either. Table 3 summarizes the effect of BBRCI and plant stanols on the percent tissue weight relative to body weight.

[5] = test system: liver CYP7A1 mRNA; test: Example 1: liver CYP7A1 mRNA expression, real-time PCR; settings: relative expression in reference to a housekeeping gene, Example 1, 4 weeks
Method: Experiments were also conducted to determine the effect on the expression of genes associated with cholesterol in the liver and intestine. Total RNA was extracted and mRNA was converted to cDNA. The mRNA expression was measured by real-time PCR with four repeats and calculated as relative expression in reference to internal control of a housekeeping gene for each sample. Table 5, FIG. 8b and FIG. 8c summarize the effect of BBRCI and PS on the mRNA expression of CYP7A1 and CYP27A1 in the liver. BBRCI and PS alone tended to increase mRNA expression of both genes. CYP7A1 and CYP27A1 are two rate-limiting enzymes controlling bile acid synthesis, which is one mechanism through which the body removes cholesterol by converting it into bile acids. When BBRCI and PS were combined, a synergistic action appeared to happen.

[6] = Example 1: weekly body weight and daily feed intake; settings: Example 1, weekly body weight over 4 weeks, FIG. 5
Method: Male Golden Syrian Hamsters were purchased from Charles River Co. housed individually in cages for two weeks prior to the commencement of the study. During this adjustment period, animals were fed with regular rodent chow diet with free access to both food and water. A total of 60 hamsters were weighed and randomly assigned to one of four groups of 15 animals each. Animals are subjected to a temperature-controlled environment with a 12:12 h light/dark cycle. Each group was fed with one of the four isocaloric experimental diets for a 4 week period. […] During the course of the experiment, animals were weighed weekly and food consumption was determined on a daily basis over the course of the experiment. During the course of the experiment, data were obtained with regard to food consumption and bodyweight so that the dose of BBRCI was maintained on a mg/kg basis as the animals grew over the 4 weeks experimental period. […] This may have important implications on weight control, healthy weight management strategies, and body composition (increase lean body mass) in humans and animals. […] Thereafter, significant differences in food intake was observed from days 22-25 but this effect disappeared during days 25-28 as a small surgical intervention was performed on each animal on day 25 on the neck area of the animal, which reduced food consumption in each treatment. […]

[7] = Example 1, 4 weeks, BBRCI 100 mg/kg·d and/or PS 1% (w/w)
[8] = Example 1, BBRCI 100 mg/kg·d, PS 1% (w/w)
[9] = plasma, 0.15% cholesterol diet, 4 weeks, BBRCI 100 mg/kg·d and/or PS 1% (w/w), means±SD, n=15

SMILES: COc1ccc2cc3[n+](cc2c1OC)CCc1cc2c(cc1-3)OCO2 [BBRCI, Berberine chloride]
- HDL-C % difference from Control [1, 7]: −16.2%
- HDL-C/nonHDL-C % difference from Control [1, 7]: 19%
- T-C % difference from Control [1, 7]: −21.9%
- TG % difference from Control [1, 7]: −3.9%
- nonHDL-C % difference from Control [1, 7]: −28.2%
- reduction of T-C relative to control [1, 8]: 22%
- reduction of nonHDL-C relative to control [1, 8]: 28%
- reduction of plasma TG levels ([1]; Example 1, relative to control, BBRCI 100 mg/kg·d, PS 1% (w/w)): 4%
- T-C Concentration ([1]; plasma, 0.15% cholesterol diet, 4 weeks, BBRCI 100 mg/kg·d and/or PS 1% (w/w) in diet, means±SD, n=15): 169 ± 20^b mg/dl
- HDL-C Concentration [1, 9]: 100 ± 17^b mg/dl
- TG Concentration [1, 9]: 326 ± 111^a mg/dl
- nonHDL-C Concentration ([1]; plasma, calculated by subtracting HDL-C from total cholesterol, 0.15% cholesterol diet, 4 weeks, BBRCI 100 mg/kg·d and/or PS 1% (w/w), n=15): 66 ± 14^b mg/dl
- HDL-C/nonHDL-C ([1]; ratio, plasma, 0.15% cholesterol diet, 4 weeks, BBRCI 100 mg/kg·d and/or PS 1% (w/w), n=15): 1.60 ± 0.58^b
- cholesterol concentration in the liver [2]: dramatically reduced cholesterol concentration in the liver
- ABCG8 mRNA expression [3]: 1.33 ± 0.45^a
- Liver, percent tissue weight relative to body weight [4, 7]: 4.4 ± 0.4^b percent
- appearance of fatty liver ([4]; Example 1, compared to the livers of the control animals): markedly reduced the appearance of fatty liver
- CYP7A1 mRNA expression [5]: 1.30 ± 0.66
- body weight [6]: trend toward reduced body weights after two weeks
